Results reported in US7863446B2, “Heterocycles” (Orchid Research Laboratories Limited, priority 2006, dated 2011).

How the values were obtained:
[1] = system: TNF-α; assay: LPS induced sepsis for measurement of TNF-α inhibition in mice; assay type: in vivo; details: 50 mg/kg, oral, mice, serum 90 minutes after LPS
Method: LPS Induced Sepsis for Measurement of TNF-α Inhibition in Mice
The LPS induced sepsis model in mice was performed as described by Les sekut et al (J Lab Clin Med 1994; 124:813-20). Female Swiss albino mice were selected and the body weights were equivalent within each group. The mice were fasted for 20 hours with free access to water. The mice were dosed orally with the test compound suspended in vehicle containing 0.5% Tween 80 in 0.25% Carboxy-methylcellulose sodium salt. The control mice were administered the vehicle alone. After 30 minutes of oral dosing, mice were injected with 500 μg of Lipopolysaccharide (Escherichia coli, LPS: B4 from Siga) in phosphate buffer saline solution into the intraperitoneal cavity of the mice. After 90 minutes of LPS administration mice were bled via retro-orbital sinus puncture. Blood samples were stored overnight at 4° C. Serum samples were collected by centrifuging the samples at 4000 rpm for 15 minutes at 4° C. Immediately the serum samples were analysed for TNF-α levels using commercially available mouse TNF-α ELISA kit (Amersham Biosciences) and assay was performed by the manufacturer instruction.
ED50 Measurement of TNF alpha Inhibition in Mice Sepsis Model

[2] = biological target: T1, purified recombinant COX-2 (Homo sapiens, UniProt P35354); assay: COX-2 enzyme based assay; assay type: biochemical; details: NA = No activity, read-out: % Inhibition in rEnzyme Assay COX-2
T1 sequence (P35354 18-604): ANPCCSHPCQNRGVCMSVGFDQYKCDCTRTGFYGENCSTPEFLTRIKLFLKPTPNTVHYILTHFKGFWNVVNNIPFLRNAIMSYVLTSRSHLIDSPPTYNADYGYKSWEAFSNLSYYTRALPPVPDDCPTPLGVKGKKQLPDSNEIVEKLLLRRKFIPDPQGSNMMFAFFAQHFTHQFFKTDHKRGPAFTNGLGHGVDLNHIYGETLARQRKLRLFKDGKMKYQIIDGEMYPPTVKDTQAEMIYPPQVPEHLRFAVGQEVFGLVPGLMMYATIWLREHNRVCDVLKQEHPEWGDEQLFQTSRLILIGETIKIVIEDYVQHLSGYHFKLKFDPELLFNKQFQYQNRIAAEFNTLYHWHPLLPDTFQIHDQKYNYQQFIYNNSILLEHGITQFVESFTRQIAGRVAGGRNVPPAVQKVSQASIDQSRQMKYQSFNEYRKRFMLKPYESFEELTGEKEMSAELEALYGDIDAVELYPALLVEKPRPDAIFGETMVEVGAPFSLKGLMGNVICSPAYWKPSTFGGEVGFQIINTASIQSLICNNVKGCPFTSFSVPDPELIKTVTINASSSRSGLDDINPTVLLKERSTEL
Method: (§1) COX-1 and COX-2 Enzyme Based Assay
(§2) COX-1 and COX-2 enzyme based assays were carried out to check the inhibitory potential of the test compounds on the production of prostaglandin by purified recombinant COX-1/COX-2 enzyme (Proc. Nat. Acad. Sci. USA, 88, 2692-2696, 1991; J. Clin. Immunoassay 15, 116-120, 1992) In this assay, the potential of the test compound to inhibit the production of prostaglandin either by COX-1 or COX-2 from arachidonic acid (substrate) was measured. This was an enzyme based in-vitro assay to evaluate selective COX inhibition with good reproducibility.
(§3) Arachidonic acid was converted to PGH2 (Intermediate product) by COX1/COX-2 in the presence or absence of the test compound. The reaction was carried out at 37° C. and after 2 minutes it was stopped by adding 1M HCl. Intermediate product PGH2 was converted to a stable prostanoid product PGF2αby SnCl2 reduction. The amount of PGF2α, produced in the reaction was inversely proportional to the COX inhibitory potential of the test compound. The prostanoid product was quantified via enzyme immunoassay (EIA) using a broadly specific antibody that binds to all the major forms of prostaglandin, using Cayman ELISA kit as per the procedure outlined by the manufacturer (Cayman Chemicals, Ann Arbor, USA).

[3] = biological target: purified recombinant COX-1 (Homo sapiens, UniProt P23219); assay: COX-1 enzyme based assay; assay type: biochemical; details: NA = No activity, read-out: % Inhibition in rEnzyme Assay COX-1
Method: as §1, §2, §3

[4] = system: PDE4; assay: PDE4 activity; assay type: biochemical; details: source Human U937 cells
Method: PDE4 Activity PDE4 inhibition was measured by following a literature assay procedure (Cortizo J et al., Br J Pharmacol., 1993, 108: 562-568. The assay method involves the following conditions. • Source: Human U937 cells • Substrate: 1.01 μM [^3H] camp+camp • Vehicle: 1% DMSO • Pre-Incubation Time/Temperature: 15 minutes at 25° C. • Incubation Time/Temperature. 20 minutes at 25° C. • Incubation buffer: 50 mM Tris-HCl, pH 7.5, 5 mM MgCl2 • Quantitation method: Quantitation of [^3H] Adenosine • Significance criteria: >50% of max stimulation or inhibition The results are tabulated as shown in the table XIII.

[5] = system: TNF-α; assay: In vitro measurement of TNF-α in human PBMC (LPS stimulated); assay type: cell-based; details: for inhibition at 1 µM: NA = No activity, read-out: TNF-α Inhibition (%) at Conc. (1 μM); for inhibition at 10 µM: read-out: TNF-α Inhibition (%) at Conc. (10 μM)
Method: In Vitro Measurement of Tumor Necrosis Factor Alpha (TNF-α)
This assay determines the effect of test compounds on the production of TNF α in human Peripheral Blood Mononuclear Cells (PBMC). Compounds were tested for their ability to inhibit the activity of TNF α in human PBMC. PBMC were isolated from blood (of healthy volunteers) using BD Vacutainer CPT™ (Cell preparation tube, BD Bio Science) and suspended in RPMI medium (Physiol. Res. 52: 593-598, 2003). The test compounds were pre-incubated with PBMC (0.5 million/incubation well) for 15 minutes at 37° C. and then stimulated with Lipopolysaccharide (Escherichia coli: B4; 1 μg/ml) for 18 hours at 37° C. in 5% CO2. The levels of TNF-α in the cell culture medium were estimated using enzyme-linked immunosorbent assay performed in a 96 well format as per the procedure of the manufacturer (Cayman Chemical, Ann Arbor, USA).

[6] = biological target: T2, COX-2 (Homo sapiens, UniProt P35354); assay: Human whole blood assay (PGE-2 inhibition, COX-2); assay type: cell-based; details: LPS stimulated human whole blood, NA = No activity, read-out: % PGE-2 Inhibition in hWBA
T2 construct: Fresh blood was collected in tubes containing sodium heparin by vein puncture from healthy male volunteers; endogenous in cells; host or cells: human whole blood from healthy male volunteers, stimulated with LPS
T2 sequence (P35354 18-604): T1 sequence (P35354 18-604)
Method: In Vitro Evaluation of Cyclooxygenase-2 (Cox-2) Inhibition Activity
The COX-2 inhibition activities of the compounds illustrated in the examples were determined by the following method.
Human whole blood provides a protein and cell rich milieu appropriate for the study of the biochemical efficacy of anti-inflammatory compounds such as selective COX-2 inhibitors. […] This correlates with the observation that COX-2 inhibitors have no effect on prostaglandin E2 (PGE2) production in normal blood. These inhibitors were active only after incubation of human blood with lipopolysaccharide (LPS), which induces COX-2 production in the blood.
Fresh blood was collected in tubes containing sodium heparin by vein puncture from healthy male volunteers. The subjects should have no apparent inflammatory conditions and should have not taken NSAIDs for at least 7 days prior to blood collection. Blood was preincubated with aspirin in vitro (12 μg/ml, at time zero) to inactivate COX-1 for 6 hours. Then test compounds (at various concentrations) or vehicle were added to blood, the blood was stimulated with LPS B:4 (10 μg/ml) and incubated for another 18 hours at 37° C. water bath. After which the blood was centrifuged, plasma was separated and stored at −80° C. (J. Pharmacol. Exp. Ther, 271, 1705, 1994; Proc. Natl. Acad. Sci. USA, 96, 7563, 1999). The plasma was assayed for PGE2 using Cayman ELISA kit as per the procedure outlined by the manufacturer (Cayman Chemicals, Ann Arbor, USA).

[7] = system: IL-6; assay: In vitro measurement of IL-6 in human PBMC (LPS stimulated); assay type: cell-based
Method: In Vitro Measurement of Interleukin-6(IL-6)
This assay determins the effect of test compounds on the production of IL-6 in human PBMC (Physiol. Res. 52: 593-598, 2003). Compounds were tested for their ability to inhibit the activity of IL-6 in human PBMC. PBMC were isolated from blood using BD Vacutainer CPT™ Cell preparation tube (BD Bio Science) and suspended in RPMI medium. The test compounds were pre-incubated with PBMC (0.5 million/incubation well) for 15 minutes at 37° C. and then stimulated with Lipopolysaccharide (Escherichia coli: B4; 1 μg/ml) for 18 hours at 37° C. in 5% CO2. The levels of IL-6 in cell culture medium were estimated using enzyme-linked immunosorbent assay performed in a 96 well format as per the procedure of the manufacturer (Cayman Chemical, Ann Arbor, USA).

Sequence of purified recombinant COX-1 (P23219 24-599): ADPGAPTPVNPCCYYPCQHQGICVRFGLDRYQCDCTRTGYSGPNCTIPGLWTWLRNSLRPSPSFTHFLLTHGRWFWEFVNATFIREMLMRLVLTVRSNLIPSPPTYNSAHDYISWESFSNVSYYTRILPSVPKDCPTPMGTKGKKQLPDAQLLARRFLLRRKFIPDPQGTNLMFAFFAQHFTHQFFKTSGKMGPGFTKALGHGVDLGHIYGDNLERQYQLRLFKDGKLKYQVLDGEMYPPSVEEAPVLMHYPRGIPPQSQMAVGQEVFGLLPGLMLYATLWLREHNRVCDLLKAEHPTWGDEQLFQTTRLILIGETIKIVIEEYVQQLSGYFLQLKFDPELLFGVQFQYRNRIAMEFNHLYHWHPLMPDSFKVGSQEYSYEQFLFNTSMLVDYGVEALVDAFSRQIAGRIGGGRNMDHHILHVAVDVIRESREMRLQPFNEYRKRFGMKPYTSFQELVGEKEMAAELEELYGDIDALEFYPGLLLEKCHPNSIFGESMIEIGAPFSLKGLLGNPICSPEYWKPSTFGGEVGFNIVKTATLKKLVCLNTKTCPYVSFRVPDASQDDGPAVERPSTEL

Row | SMILES | TNF-α Inhibition (%) at 50 mg/kg [1] [%] | inhibition at 10 µM [2] [%] | inhibition at 10 µM [3] [%] | PDE4 inhibition at 10 μM (%) [4] [%] | further results
1 | NS(=O)(=O)c1cccc(-c2c(-c3ccc(F)cc3)nc(C(F)(F)F)nc2N2CCN(c3ncccn3)CC2)c1 [Example 54, 3-[4-(4-Fluorophenyl)-6-(4-pyrimidin-2-ylpiperazin-1-yl)-2-(trifluoromethyl)pyrimidin-5-yl]benzenesulfonamide] | 63.44 | 13.7 | 45.5 |  | inhibition at 1 µM [3]: 34.4%
2 | NS(=O)(=O)c1cccc(-c2c(-c3ccc(F)cc3)nc(C(F)(F)F)nc2N2CCN(c3ccccn3)CC2)c1 [Example 53, 3-[4-(4-Fluorophenyl)-6-(4-pyridin-2-ylpiperazin-1-yl)-2-(trifluoromethyl)pyrimidin-5-yl]benzenesulfonamide] | 70.93 | 26.7 | 56.9 |  | inhibition at 1 µM [2]: 20%; inhibition at 1 µM [3]: 46.3%
3 | NS(=O)(=O)c1cccc(-c2c(-c3ccc(F)cc3)nc(C(F)(F)F)nc2N2CCN(C(=O)C(F)(F)F)CC2)c1 [Example 108, 3-{6-(4-Fluorophenyl)-4-[4-(trifluoroacetyl)piperazin-1-yl]-2-(trifluoromethyl)pyrimidin-5-yl}benzenesulfonamide] |  |  |  | 90 | 
4 | NS(=O)(=O)c1ccc(-c2c(-c3ccc(F)cc3)nc(C(F)(F)F)nc2N2CCNCC2)cc1 [Example 30, 4-[4-(4-Fluorophenyl)-6-piperazin-1-yl-2-(trifluoromethyl)pyrimidin-5-yl]benzenesulfonamide] | 84.84 |  |  |  | inhibition at 1 µM [5]: 43.2%; inhibition at 10 µM [5]: 100%
5 | NS(=O)(=O)c1cccc(-c2c(-c3ccccc3)nc(C(F)(F)F)nc2N2CCN(c3ccc(C(F)(F)F)cn3)CC2)c1 [Example 115] | 54.23 | 7.03 | 19.2 |  | inhibition at 1 µM [5]: 37.8%; inhibition at 10 µM [5]: 58.3%; inhibition at 1 µM [3]: 6.29%
6 | NS(=O)(=O)c1cccc(-c2c(-c3ccccc3)nc(C(F)(F)F)nc2N2CCN(C(=O)C(F)(F)F)CC2)c1 [Example 172, 3-{6-Phenyl-4-[4-(trifluoroacetyl)piperazin-1-yl]-2-(trifluoromethyl)pyrimidin-5-yl}benzenesulfonamide] |  |  |  | 87 | 
7 | Fc1ccc(-c2nc(C(F)(F)F)nc(NC3CC3)c2-c2ccccc2)cc1 [Example 174, N-Cyclopropyl-6-(4-fluorophenyl)-5-phenyl-2-(trifluoromethyl)pyrimidin-4-amine] |  |  |  | 88 | 
8 | NS(=O)(=O)c1cccc(-c2c(-c3ccccc3)nc(C(F)(F)F)nc2N2CCC(=O)CC2)c1 [Example 178, 3-[6-Phenyl-4-(4-oxopiperidin-1-yl)-2-(trifluoromethyl)pyrimidin-5-yl]benzenesulfonamide] |  |  |  | 84 | 
9 | NS(=O)(=O)c1cccc(-c2c(-c3ccccc3)nc(C(F)(F)F)nc2N2CCN(c3ncccn3)CC2)c1 [Example 57] | 52.02 | 0.66 | 5.7 |  | inhibition at 1 µM [5]: 84.5%; inhibition at 10 µM [5]: 88.9%; inhibition at 1 µM [2]: 8.29%
10 | CS(=O)(=O)c1ccc(-c2nc(C(F)(F)F)nc(NN)c2-c2ccc(S(=O)(=O)NN)cc2)cc1 [Example 7, 4-{4-Hydrazino-6-[4-(methylsulfonyl)phenyl]-2-(trifluoromethyl)pyrimidin-5-yl}benzenesulfonohydrazide] |  |  |  |  | inhibition at 0.25 µM ([6]; 0.25 μM): 26.2%; inhibition at 1 µM ([6]; 1 μM): 1.9%; melting point: 203 to 206 °C
11 | CS(=O)(=O)c1ccc(-c2nc(C(F)(F)F)nc(OS(=O)(=O)c3cccc4ccccc34)c2-c2ccccc2)cc1 [Example 18, 6-[4-(Methylsulfonyl)phenyl]-5-phenyl-2-(trifluoromethyl)pyrimidin-4-ylnapthalenesulfonate] |  |  |  |  | inhibition at 1 µM ([7]; 1 μM, read-out: IL-6 Inhibition (%) Conc. (1 μM)): 32.8%; inhibition at 10 µM ([7]; 10 μM, read-out: IL-6 Inhibition (%) Conc. (10 μM)): 41%; melting point: 204 to 206 °C
